Reference: US5278150A, “2-hydrazoadenosines and their utility for the treatmeat of vascular conditions” (Whitby Research, Inc., priority 1992, dated 1994)
Like-named read-outs stand apart in the source and are kept apart here.

Tests used:
guinea pig heart = test: Second degree heart block (Wenckebach point), Langendorff guinea pig heart; settings: for minimal effective concentration: Cavia porcellus, read-out: Wenckbach
Description: An electrode in the right ventricle monitored the electrocardiogram. […] The rate of agonist infusion was increased stepwise at intervals of 3-4 minutes until the appearance of second degree heart block (Wenckebach point).

[1] = in words; cited from earlier work
A1 adenosine receptor [2] = target: T1, A1 adenosine receptor (Cavia porcellus, UniProt P47745)
T1 sequence (P47745 1-326): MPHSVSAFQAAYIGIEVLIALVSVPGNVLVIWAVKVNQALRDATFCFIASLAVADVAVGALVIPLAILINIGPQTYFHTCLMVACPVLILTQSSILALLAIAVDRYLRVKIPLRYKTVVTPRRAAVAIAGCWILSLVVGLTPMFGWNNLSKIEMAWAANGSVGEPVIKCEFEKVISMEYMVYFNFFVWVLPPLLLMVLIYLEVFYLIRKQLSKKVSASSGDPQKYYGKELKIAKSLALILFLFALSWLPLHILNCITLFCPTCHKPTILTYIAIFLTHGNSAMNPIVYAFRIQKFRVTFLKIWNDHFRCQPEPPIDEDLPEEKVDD
Description: (§1) The perfusion buffer consisted of 120 mM NaCl, 27 mM NaHCO3, 3.7 mM KCl, 1.3 mM KH2 PO4, 0.64 mM MgSO4, 1.3 mM CaCl2, 2 mM pyruvate, and 5 mM glucose. […] Continuous drainage of the left ventricle by means of a catheter inserted across the mitral valve insured that this cardiac chamber did no external work. An electrode in the right ventricle monitored the electrocardiogram. Timed collections of cardiac effluent in a graduated cylinder during the steady-state phase of the flow responses to compound administration measured total coronary flow, which was also monitored by an in-line electromagnetic flowmeter in the aortic perfusion cannula. The quotient of the ratio of compound infusion (mol/min) divided by coronary flow rate (L/min) equals agonist concentration in the perfusate. […] The quotient of the EC50 of stimulus-QRS prolongation divided by the EC50 of coronary vasodilation provided an index of selectivity.

A2 adenosine receptor [3] = target: A2 adenosine receptor (Cavia porcellus, UniProt P46616)
Description: as §1

A2 adenosine receptor [4] = tested on: A2 adenosine receptor
Description: as §1

A1 adenosine receptor [5] = target: T1, A1 adenosine receptor; settings: BIOASSAY RESULTS table
Description: as §1

A2 adenosine receptor [6] = settings: read-out: EC50 for coronary vasodilation; coronary arteries (vasodilation); cited from earlier work
[7] = concentration at appearance of second degree heart block
[8] = -LOG EC50 A1, BIOASSAY RESULTS table, A1
[9] = -LOG EC50 A2, BIOASSAY RESULTS table, A2
[10] = EC50 -CF, coronary vasodilation, perfused guinea pig heart paced at 260 beats/min
[11] = EC50-SQPR divided by EC50-CF, >1 indicates selectivity for A2 adenosine receptor
[12] = EC50 -SQPR, prolongation of stimulus-QRS interval by 50% of maximum response, perfused guinea pig heart

Chain of A2 adenosine receptor (Cavia porcellus, UniProt P46616) (P46616 whole entry): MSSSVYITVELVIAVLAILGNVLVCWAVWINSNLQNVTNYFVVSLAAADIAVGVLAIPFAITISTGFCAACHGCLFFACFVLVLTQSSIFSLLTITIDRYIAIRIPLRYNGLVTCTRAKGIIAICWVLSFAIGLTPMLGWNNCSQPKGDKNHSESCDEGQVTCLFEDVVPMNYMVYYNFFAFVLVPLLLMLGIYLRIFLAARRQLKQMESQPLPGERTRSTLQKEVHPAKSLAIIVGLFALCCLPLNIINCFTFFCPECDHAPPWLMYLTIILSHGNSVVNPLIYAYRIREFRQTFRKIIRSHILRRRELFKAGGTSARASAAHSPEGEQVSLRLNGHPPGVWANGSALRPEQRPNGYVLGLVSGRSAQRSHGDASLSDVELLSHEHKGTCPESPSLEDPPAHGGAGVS

SMILES	minimal effective concentration (guinea pig heart; [7])	EC50 (A1 adenosine receptor [2]; [8])	EC50 (A2 adenosine receptor [3]; [9])	EC50 (A2 adenosine receptor [3]; [10])	Selectivity (SQPR/CF) (A2 adenosine receptor [4]; [11])	further results
COc1ccc(C=NNc2nc(N)c3ncn([C@@H]4O[C@H](CO)[C@@H](O)[C@H]4O)c3n2)cc1 [Example 11, 6-amino-2-{2-[(4-methoxyphenyl)methylene]diazanyl}-9-(β-D-ribofuranosyl)-9H-purine]	50 µM					
Nc1ncnc2c1ncn2[C@@H]1O[C@H](CO)[C@@H](O)[C@H]1O [Adenosine, 9-β-D-ribofuranosyl-9H-purin-6-amine]						cardiovascular activity [1]: hypotensive and bradycardia activity
Nc1nc(NN=CCCC2CCCCC2)nc2c1ncn2[C@@H]1O[C@H](CO)[C@@H](O)[C@H]1O [2-C Hexylethyl, H]		9770 nM				
Nc1nc(NN=CCCCc2ccccc2)nc2c1ncn2[C@@H]1O[C@H](CO)[C@@H](O)[C@H]1O [3-Ph Propyl, H]		66100 nM	1.95 nM			
CC(C)CCC=NNc1nc(N)c2ncn([C@@H]3O[C@H](CO)[C@@H](O)[C@H]3O)c2n1 [3-Me-1-Bu, H]		20900 nM	0.468 nM			
Cc1ccc(C=NNc2nc(N)c3ncn([C@@H]4O[C@H](CO)[C@@H](O)[C@H]4O)c3n2)cc1 [Example 9, 6-amino-2-{2-[(4-methylphenyl)methylene]diazanyl}-9-(β-D-ribofuranosyl)-9H-purine]		39800 nM				Wenckbach (guinea pig heart; second degree heart block, unit printed nmol (Example 9)): 103,514 nmol
CC(=NNc1nc(N)c2ncn([C@@H]3O[C@H](CO)[C@@H](O)[C@H]3O)c2n1)c1ccc(F)cc1 [Example 10, 6-amino-2-{2-[1-(4-fluorophenyl)ethylidene]diazanyl}-9-(β-D-ribofuranosyl)-9H-purine]	7.3 µM	4170 nM	3.24 nM	3.2 nM	1,822	
Nc1nc(NN=Cc2ccc(Cl)cc2)nc2c1ncn2[C@@H]1O[C@H](CO)[C@@H](O)[C@H]1O [Example 1, 6-amino-2-{2-[(4-chlorophenyl)methylene]diazanyl}-9-(β-D-ribofuranosyl)-9H-purine]	30.4 µM					
Nc1nc(NN=CC2CCCCC2)nc2c1ncn2[C@@H]1O[C@H](CO)[C@@H](O)[C@H]1O [Example 3, 6-amino-2-{2-[(cyclohexyl)methylene]diazanyl}-9-(β-D-ribofuranosyl)-9H-purine]		3550 nM	0.257 nM	0.3 nM		EC50 (A1 adenosine receptor [2]; [12]): 3550 nM; Selectivity (SQPR/CF) (A2 adenosine receptor [4]): 16,472; minimal effective concentration (guinea pig heart): 5.92 µM
Nc1nc(NN=Cc2cccnc2)nc2c1ncn2[C@@H]1O[C@H](CO)[C@@H](O)[C@H]1O [Example 5, 6-amino-2-{2-[(3-pyridyl)methylene]diazanyl}-9-(β-D-ribofuranosyl)-9H-purine]	63.5 µM			15 nM	2,657	
Nc1nc(NN=Cc2ccc(F)cc2)nc2c1ncn2[C@@H]1O[C@H](CO)[C@@H](O)[C@H]1O [Example 2, 6-amino-2-{2-[(4-fluorophenyl)methylene]diazanyl}-9-(β-D-ribofuranosyl)-9H-purine]	30.9 µM		2.45 nM	2.5 nM	8,500	EC50 (A1 adenosine receptor [2]; [12]): 12600 nM
Nc1nc(NN=Cc2cccc3ccccc23)nc2c1ncn2[C@@H]1O[C@H](CO)[C@@H](O)[C@H]1O [Example 14, 6-amino-2-{2-[(1-naphthyl)methylene]diazanyl}-9-(β-D-ribofuranosyl)-9H-purine]	2 µM			9.5 nM	110	
Nc1nc(NN=Cc2ccccn2)nc2c1ncn2[C@@H]1O[C@H](CO)[C@@H](O)[C@H]1O [Example 13, 6-amino-2-{2-[(2-pyridyl)methylene]diazanyl}-9-(β-D-ribofuranosyl)-9H-purine]				5.7 nM	42,000	minimal effective concentration (guinea pig heart; second degree heart block, unit inferred): 110 µM
CC(=NNc1nc(N)c2ncn([C@@H]3O[C@H](CO)[C@@H](O)[C@H]3O)c2n1)c1ccccc1 [Example 12, 6-amino-2-{2-[1-(phenyl)ethylidene]diazanyl}-9-(β-D-ribofuranosyl)-9H-purine]	11 µM			13 nM	380	
Nc1nc(NN=Cc2cccs2)nc2c1ncn2[C@@H]1O[C@H](CO)[C@@H](O)[C@H]1O [Example 15, 6-amino-2-{2-[(2-thienyl)methylene]diazanyl}-9-(β-D-ribofuranosyl)-9H-purine]	93 µM			14 nM	4400	
Nc1nc(NN=CC2CC=CCC2)nc2c1ncn2[C@@H]1O[C@H](CO)[C@@H](O)[C@H]1O (some centres unmarked) [3-Cyclo-hexenyl, H]						-LOG EC50 A1 (A1 adenosine receptor [5]): 4.86
Nc1nc(NN=Cc2ccccc2)nc2c1ncn2[C@@H]1O[C@H](CO)[C@@H](O)[C@H]1O [Example 7, 6-amino-2-{2-(phenylmethylene)diazanyl}-9-(β-D-ribofuranosyl)-9H-purine]	216 µM	83200 nM	2.29 nM	2.3 nM	43,347	
Cc1cccc(C=NNc2nc(N)c3ncn([C@@H]4O[C@H](CO)[C@@H](O)[C@H]4O)c3n2)c1 [Example 16, 6-amino-2-{2-[(3-methylphenyl)methylene]diazanyl}-9-(β-D-ribofuranosyl)-9H-purine]				4.4 nM		Selectivity (SQPR/CF) (A2 adenosine receptor [4]): 4700; minimal effective concentration (guinea pig heart): 47 µM
Nc1nc(OCCC2CCCCC2)nc2c1ncn2[C@@H]1O[C@H](CO)[C@@H](O)[C@H]1O [2-(2-cyclohexylethoxy)adenosine]						EC50 (A2 adenosine receptor [6]): 1 nM
NNc1nc(N)c2ncn([C@@H]3O[C@H](CO)[C@@H](O)[C@H]3O)c2n1 [Example 8, 6-amino-2-diazanyl-9-(β-D-ribofuranosyl)-9H-purine, reference compound]	18.2 µM	20000 nM	79.4 nM	80.4 nM	301	EC50 (A1 adenosine receptor [2]; [12]): 14600 nM
Nc1nc(N)c2ncn([C@@H]3O[C@H](CO)[C@@H](O)[C@H]3O)c2n1 [2-Amino-adenosine, reference compound]			224 nM			EC50 (A1 adenosine receptor [2]): 11200 nM
Nc1nc(NN=Cc2ccc3ccccc3c2)nc2c1ncn2[C@@H]1O[C@H](CO)[C@@H](O)[C@H]1O [Example 4, 6-amino-2-{2-[(2-naphthyl)methylene]diazanyl}-9-(β-D-ribofuranosyl)-9H-purine]	10.1 µM	2630 nM	4.17 nM	4.2 nM	767	
Nc1nc(NN=Cc2ccncc2)nc2c1ncn2[C@@H]1O[C@H](CO)[C@@H](O)[C@H]1O [Example 6, 6-amino-2-{2-[(4-pyridyl)methylene]diazanyl}-9-(β-D-ribofuranosyl)-9H-purine]	68 µM			11 nM	2,817	
Nc1nc(NN=CCCCC2CCCCC2)nc2c1ncn2[C@@H]1O[C@H](CO)[C@@H](O)[C@H]1O [3-C Hexylpropyl, H]		66100 nM	1.78 nM			
CCCCCC=NNc1nc(N)c2ncn([C@@H]3O[C@H](CO)[C@@H](O)[C@H]3O)c2n1 [1-Pent, H]		38900 nM	1.02 nM			
